In brackets after ≈: the same amount, converted by molar mass. Where only a bound is given, the exact number is not on record here.

Series [1] relates to Mycobacterium tuberculosis. Put plainly: Antimycobacterial activity against Mycobacterium tuberculosis H37Rv ATCC 27294 after 28 days by two-fold serial dilution method. It is filed as functional. The settings on record: H37Rv ATCC 27294, 672 h.
Series [2] in a line: Cytotoxicity against HEK293T cells assessed as inhibition of cell viability at 50 ug/ml after 72 hrs by MTT assay relative to control. It is filed as cell-based, HEK-293T. The conditions noted are these: human, read-out: INH. On the technique in general: Tetrazolium dyes change colour on reduction, which living cells bring about.
A short description of series [3]: Therapeutic index, ratio of compound cytotoxic activity for HEK293T cells to antimycobacterial activity against Mycobacterium tuberculosis H37Rv ATCC 27294. It is filed as cell-based, HEK-293T. The settings on record: human, read-out: TI.

`Nc1ccc(CCNC(=O)c2nc3cc(C(F)(F)F)ccc3s2)cc1`: the MIC99 in series [1] is 50 µg/mL (≈ 137 µM).
In series [1], `O=C(NCc1ccccc1)c1nc2cc(Cl)ccc2s1` had an MIC99 of 6.25 µg/mL (≈ 20.6 µM). The cytotoxicity at 72 h, 50 ug/ml in series [2] was found to be 40.1%.
For `O=C(NCc1ccccc1)c1nc2cc(C(F)(F)F)ccc2s1`, in that order: 6.25 µg/mL (≈ 18.6 µM) and 40.1%.
As for `CO[C@H]1/C=C/O[C@@]2(C)Oc3c(C)c(O)c4c(O)c(c(/C=N/N5CCN(C)CC5)c(O)c4c3C2=O)NC(=O)/C(C)=C\C=C\[C@H](C)[C@H](O)[C@@H](C)[C@@H](O)[C@@H](C)[C@H](OC(C)=O)[C@@H]1C` [RIFAMPIN], the MIC99 in series [1] was found to be 0.197 µg/mL (≈ 0.239 µM).
For the compound `CC[C@@H](CO)NCCN[C@@H](CC)CO` [ETHAMBUTOL], the MIC99 in series [1] came to 1.56 µg/mL (≈ 7.64 µM).
For the compound `Cc1ccccc1CNC(=O)c1nc2ccccc2s1`, the MIC99 in series [1] worked out at 12.5 µg/mL (≈ 44.3 µM). Besides, the cytotoxicity at 72 h, 50 ug/ml in series [2] is 42.6%.
In the case of `CC(C)(C)c1ccc(CNC(=O)c2nc3ccccc3s2)cc1`, the MIC99 in series [1] worked out at 50 µg/mL (≈ 154 µM).
Consider `Nc1ccc(CCNC(=O)c2nc3cc(Cl)ccc3s2)cc1`, for which the MIC99 in series [1] stood at 1.56 µg/mL (≈ 4.7 µM). The cytotoxicity at 72 h, 50 ug/ml in series [2] amounted to 25.9%.
For `O=C(NCc1ccc(F)cc1)c1nc2ccccc2s1`, in that order: 6.25 µg/mL (≈ 21.8 µM) and 50.3%.
The compound `O=C(NCc1ccccc1)c1nc2ccccc2s1` yielded an MIC99 in series [1] of 3.12 µg/mL (≈ 11.6 µM). In series [2], the cytotoxicity at 72 h, 50 ug/ml turned out to be 41.2%.
For the compound `O=C(NCc1ccccc1F)c1nc2ccccc2s1`, the MIC99 in series [1] was determined as 25 µg/mL (≈ 87.3 µM).
As for `O=C(NCc1ccc2c(c1)OCO2)c1nc2cc(Cl)ccc2s1`, in series [1], the MIC99 amounted to 25 µg/mL (≈ 72.1 µM).
Same read-out and setting: for `O=C(NCc1ccc(Cl)cc1Cl)c1nc2ccccc2s1` the value was 50 µg/mL (≈ 148 µM).
`O=C(NCc1ccccc1Cl)c1nc2ccccc2s1`: the MIC99 in series [1] was 6.25 µg/mL (≈ 20.6 µM). The cytotoxicity at 72 h, 50 ug/ml in series [2] stood at 35.6%.
Regarding `Nc1ccc(CCNC(=O)c2nc3ccccc3s2)cc1`, the MIC99 in series [1] was 25 µg/mL (≈ 84.1 µM).
Still for that read-out and setting: under `O=C(NCc1ccc(F)c(F)c1)c1nc2ccccc2s1` stands 25 µg/mL (≈ 82.2 µM).
Consider `COc1ccccc1CNC(=O)c1nc2cc(Cl)ccc2s1`, for which the MIC99 in series [1] came out at 12.5 µg/mL (≈ 37.6 µM). For the same compound, the cytotoxicity at 72 h, 50 ug/ml in series [2] turned out to be 38.9%.
In turn, `O=C(NCc1cc(F)ccc1F)c1nc2cc(Cl)ccc2s1` showed an MIC99 in series [1] of 0.78 µg/mL (≈ 2.3 µM). The selectivity ratio in series [3] was more than 64. Further, in series [2], the cytotoxicity at 72 h, 50 ug/ml was 32.2%.
`COc1ccc(CNC(=O)c2nc3ccccc3s2)c(OC)c1`: the MIC99 in series [1] turned out to be 50 µg/mL (≈ 152 µM).
In series [1], `Cc1ccc(CNC(=O)c2nc3ccccc3s2)cc1` gave an MIC99 of 50 µg/mL (≈ 177 µM).
The compound `COc1ccc(CNC(=O)c2nc3ccccc3s2)cc1OC` had an MIC99 in series [1] of 12.5 µg/mL (≈ 38.1 µM). For the same compound, in series [2], the cytotoxicity at 72 h, 50 ug/ml came out at 19.1%.
`O=C(NCc1cccc(Cl)c1)c1nc2cc(Cl)ccc2s1` had an MIC99 in series [1] of 25 µg/mL (≈ 74.1 µM).
On the same count and under the same terms, under `NNC(=O)c1ccncc1` [ISONIAZID] stands 0.098 µg/mL (≈ 0.715 µM).
Take `O=C(NCc1ccc(F)cc1)c1nc2cc(C(F)(F)F)ccc2s1`: the MIC99 in series [1] stood at 12.5 µg/mL (≈ 35.3 µM). Moreover, the cytotoxicity at 72 h, 50 ug/ml in series [2] stood at 38.7%.
In turn, `O=C(NCc1ccc(F)cc1)c1nc2cc(Cl)ccc2s1` showed an MIC99 in series [1] of 25 µg/mL (≈ 77.9 µM).
Turning to `N#Cc1ccc(CNC(=O)c2nc3ccccc3s2)cc1`, the MIC99 in series [1] is 12.5 µg/mL (≈ 42.6 µM). Further, in series [2], the cytotoxicity at 72 h, 50 ug/ml stood at 36%.
Turning to `COc1ccc(CCNC(=O)c2nc3cc(Cl)ccc3s2)cc1OC`, in series [1], the MIC99 was 12.5 µg/mL (≈ 33.2 µM). Further, in series [2], the cytotoxicity at 72 h, 50 ug/ml is 30.9%.
Consider `O=C(NCc1cccc(Cl)c1)c1nc2ccccc2s1`, for which the MIC99 in series [1] turned out to be 50 µg/mL (≈ 165 µM).
Same read-out and setting: for `COc1ccc(CNC(=O)c2nc3ccccc3s2)cc1` the value was 25 µg/mL (≈ 83.8 µM); for `O=C(NCc1ccc(F)cc1F)c1nc2ccccc2s1`, 25 µg/mL (≈ 82.2 µM); for `COc1ccc(CNC(=O)c2nc3ccccc3s2)cc1O`, 25 µg/mL (≈ 79.5 µM).
`O=C(NCc1cc(F)ccc1F)c1nc2ccccc2s1` had an MIC99 in series [1] of 6.25 µg/mL (≈ 20.5 µM). Moreover, the cytotoxicity at 72 h, 50 ug/ml in series [2] is 52.1%.
The matching figures for `O=C(NCc1cccc(F)c1)c1nc2ccccc2s1`: 6.25 µg/mL (≈ 21.8 µM) and 44.6%.
The matching figures for `O=C(NCc1ccc2c(c1)OCO2)c1nc2ccccc2s1`: 6.25 µg/mL (≈ 20 µM) and 16.1%.
`NC(=O)c1cnccn1` [PYRAZINAMIDE]: in series [1], the MIC99 amounted to 6.25 µg/mL (≈ 50.8 µM).
Same read-out and setting: for `COc1ccccc1CNC(=O)c1nc2ccccc2s1` the value was 50 µg/mL (≈ 168 µM).
Turning to `COc1ccc(CCNC(=O)c2nc3ccccc3s2)cc1OC`, the MIC99 in series [1] stood at 25 µg/mL (≈ 73 µM).
In the case of `O=C(NCc1ccc(C(F)(F)F)cc1)c1nc2ccccc2s1`, in series [1], the MIC99 is 12.5 µg/mL (≈ 37.2 µM). Besides, the cytotoxicity at 72 h, 50 ug/ml in series [2] is 36.7%.
Compound `O=C(NCCc1ccccc1)c1nc2ccccc2s1` had an MIC99 in series [1] of 3.12 µg/mL (≈ 11.1 µM). Also, in series [2], the cytotoxicity at 72 h, 50 ug/ml was found to be 22%.
The matching figures for `O=C(NCc1ccccc1Cl)c1nc2cc(Cl)ccc2s1`: 12.5 µg/mL (≈ 37.1 µM) and 36%.
On to `O=C(NCc1ccc(Cl)cc1)c1nc2cc(Cl)ccc2s1`, for which the MIC99 in series [1] is 25 µg/mL (≈ 74.1 µM).
The same measure, in the same setting: for `COc1ccc(CCNC(=O)c2nc3cc(C(F)(F)F)ccc3s2)cc1OC` the value was 25 µg/mL (≈ 60.9 µM).
For the compound `COc1ccc(CNC(=O)c2nc3cc(Cl)ccc3s2)cc1OC`, the MIC99 in series [1] was 6.25 µg/mL (≈ 17.2 µM). The cytotoxicity at 72 h, 50 ug/ml in series [2] worked out at 36.1%.
`O=C(NCc1ccc([N+](=O)[O-])cc1)c1nc2ccccc2s1`: the MIC99 in series [1] amounted to 12.5 µg/mL (≈ 39.9 µM). Moreover, in series [2], the cytotoxicity at 72 h, 50 ug/ml came out at 38.1%.
With `O=C(NCc1ccc(Cl)cc1)c1nc2ccccc2s1`, in series [1], the MIC99 is 50 µg/mL (≈ 165 µM).

As a reminder, the MIC99 is the lowest concentration that inhibits either 99% of growth or 99% of the strains tested, depending on the study. Lower therefore signals greater potency.

Values taken from ChEMBL document CHEMBL3596139, “N-Arylalkylbenzo[d]thiazole-2-carboxamides as anti-mycobacterial agents: design, new methods of synthesis and biological evaluation” (Medchemcomm, 2014).
